Assay: xn = mol fraction of the nth substance listed
Details: 298.15 K, 100 kPa

`CC(=O)[O-].Cn1cc[nH+]c1` + CC(=O)[O-].C[NH+]1CCOCC1 gave an electrical conductivity (x1 = 1) of 0.448 S/m.
Compound `CC(=O)[O-].C[NH+]1CCOCC1` + CC(=O)[O-].Cn1cc[nH+]c1 has an electrical conductivity (x2 = 0) of 0.0229 S/m, an electrical conductivity (x2 = 0.1) of 0.0447 S/m and an electrical conductivity (x2 = 0.19) of 0.0662 S/m. It also gave an electrical conductivity (x2 = 0.31) of 0.0959 S/m, an electrical conductivity (x2 = 0.4) of 0.158 S/m and an electrical conductivity (x2 = 0.5) of 0.202 S/m. The electrical conductivity (x2 = 0.59) was 0.242 S/m and the electrical conductivity (x2 = 0.8) was 0.331 S/m.
With `CCCC[N+]1(C)CCCC1.O=S(=O)([N-]S(=O)(=O)C(F)(F)F)C(F)(F)F` + CC(=O)[O-].Cn1cc[nH+]c1 the viscosity (x2 = 0) was 74.9 mPa·s.
For `CCCC[n+]1ccn(C)c1.O=S(=O)([N-]S(=O)(=O)C(F)(F)F)C(F)(F)F` + CC(=O)[O-].Cn1cc[nH+]c1, the viscosity (x2 = 0) was 49.3 mPa·s.
With `COS(=O)(=O)[O-].Cn1cc[n+](C)c1` + CC(=O)[O-].Cn1cc[nH+]c1 the viscosity (x2 = 0) was 93.4 mPa·s.
`CC(=O)[O-].Cn1cc[nH+]c1` + CCCC[N+]1(C)CCCC1.O=S(=O)([N-]S(=O)(=O)C(F)(F)F)C(F)(F)F gave a viscosity (x1 = 0.1) of 59.5 mPa·s, a viscosity (x1 = 0.31) of 38.8 mPa·s and a viscosity (x1 = 0.4) of 33.3 mPa·s. The viscosity (x1 = 0.59) was 21.1 mPa·s, the viscosity (x1 = 0.71) was 15.9 mPa·s and the viscosity (x1 = 0.8) was 12.1 mPa·s.
In the case of `CC(=O)[O-].Cn1cc[nH+]c1` + CCCC[n+]1ccn(C)c1.O=S(=O)([N-]S(=O)(=O)C(F)(F)F)C(F)(F)F, the viscosity (x1 = 0.1) is reported as 42.8 mPa·s, the viscosity (x1 = 0.19) is reported as 38.4 mPa·s and the viscosity (x1 = 0.31) is reported as 33.5 mPa·s. It also gave a viscosity (x1 = 0.4) of 28.8 mPa·s, a viscosity (x1 = 0.5) of 24.5 mPa·s and a viscosity (x1 = 0.59) of 20.2 mPa·s. The viscosity (x1 = 0.71) was 15.5 mPa·s, the viscosity (x1 = 0.8) was 12.2 mPa·s and the viscosity (x1 = 1) was 6.22 mPa·s.
Work on `CC(=O)[O-].Cn1cc[nH+]c1` + COS(=O)(=O)[O-].Cn1cc[n+](C)c1 yielded a viscosity (x1 = 0.71) of 19.9 mPa·s, a viscosity (x1 = 0.8) of 13.6 mPa·s and a viscosity (x1 = 1) of 6.22 mPa·s.

Source: a compilation of properties of binary mixtures (doi:10.1016/j.molliq.2018.12.024)
